Results: publication PMC6287599, “2,6-Bis(2-Benzimidazolyl)Pyridine (BBP) Is a Potent and Selective Inhibitor of Small Conductance Calcium-Activated Potassium (SK) Channels” (Frontiers in Pharmacology, 2018)
“Also recorded” adds a separate entry of the source.

Target: T1, Kir3.1+Kir3.4 (Homo sapiens, UniProt P48544+P48549)
T1 sequence (P48549 1-501): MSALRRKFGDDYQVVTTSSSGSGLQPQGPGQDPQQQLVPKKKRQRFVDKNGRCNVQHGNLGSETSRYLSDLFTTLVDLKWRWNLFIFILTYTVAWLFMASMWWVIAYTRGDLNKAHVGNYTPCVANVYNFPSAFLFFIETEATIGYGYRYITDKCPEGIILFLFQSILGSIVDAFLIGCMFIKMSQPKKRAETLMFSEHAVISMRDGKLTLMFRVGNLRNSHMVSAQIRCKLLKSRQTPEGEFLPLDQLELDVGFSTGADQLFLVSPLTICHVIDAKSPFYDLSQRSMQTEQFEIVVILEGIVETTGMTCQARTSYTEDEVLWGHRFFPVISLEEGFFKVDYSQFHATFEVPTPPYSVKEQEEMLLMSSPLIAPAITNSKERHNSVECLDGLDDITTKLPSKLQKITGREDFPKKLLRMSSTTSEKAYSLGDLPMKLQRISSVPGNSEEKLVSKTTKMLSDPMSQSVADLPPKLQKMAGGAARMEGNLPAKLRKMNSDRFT
T1 sequence (P48544 1-419): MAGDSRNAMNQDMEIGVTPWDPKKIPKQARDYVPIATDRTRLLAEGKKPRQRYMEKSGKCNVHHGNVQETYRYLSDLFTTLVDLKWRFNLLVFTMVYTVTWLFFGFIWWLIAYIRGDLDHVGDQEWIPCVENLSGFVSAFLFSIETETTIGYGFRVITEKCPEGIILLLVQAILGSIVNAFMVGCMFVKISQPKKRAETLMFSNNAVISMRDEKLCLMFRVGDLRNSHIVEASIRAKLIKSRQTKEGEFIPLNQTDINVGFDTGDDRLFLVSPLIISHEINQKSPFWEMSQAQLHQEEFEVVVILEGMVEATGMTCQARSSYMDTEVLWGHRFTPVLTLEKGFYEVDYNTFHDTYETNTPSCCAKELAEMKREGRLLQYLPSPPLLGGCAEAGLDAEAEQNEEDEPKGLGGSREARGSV
Experiment: Two-electrode voltage clamp in Xenopus laevis oocytes, Kir3.1+Kir3.4
Assay type: cell-based
Conditions: BBP 10 μM, TEVC, n = 5
Method: cRNA was prepared from linearized plasmids using the mMESSAGE mMACHINE T7 kit (Ambion, USA) and quantified by UV spectroscopy (NanoDrop, Thermo Scientific, Wilmington, USA). Xenopus laevis oocytes were acquired from EcoCyte Bioscience (Castrop-Rauxel, Germany). Oocytes were injected with 50 nL cRNA and currents were recorded after 2 days of incubation at 19°C. Currents were recorded at a sampling rate of 10 kHz using a TEVC amplifier (Dagan CA-1B; IL, USA), and borosilicate glass recording electrodes (Module Ohm, Herlev, Denmark), made with a DMZ Universal Puller (Zeitz Instruments, Martinsried, Germany) with a resistance of 0.5–1 MΩ when filled with 2 M KCl. Oocytes were superfused with Kulori (pH 7.4) solution containing NaCl 90 mM, KCl 4 mM, MgCl2 1 mM, CaCl2 1 mM, 4-(2-hydroxyethyl)-1-piperazineethanesulfonic acid 5 mM, and currents were elicited with the voltage protocols previously indicated (Skarsfeldt et al., [2016]), from a holding potential of −80 mV. […]
To assess the effect of BBP on other calcium-activated potassium channels (hBK, hSK3 WT, rSK3 H491N, and hIK), each individual current was first normalized to its cell size using membrane's capacitance (pA/pF) before statistical analysis. […] Statistical significance between saline and the effect of both BBP and the corresponding reference compound was determined for each channel using one-way ANOVA analysis. […]

c1cc(-c2nc3ccccc3[nH]2)nc(-c2nc3ccccc3[nH]2)c1 [BBP, 2,6-Bis(2-benzimidazolyl)pyridine]
Effect on Kir3.1+Kir3.4 current: did not have any effect; also recorded: did not significantly affect
